Patent US12459939B2 (SHANGHAI RINGENE BIOPHARMA CO., LTD., priority 2019, dated 2025)
pIC50: −log10 of the molar value. Like-named read-outs stand apart in the source and are kept apart here.

Assays:
CYP3A4 = biological target: T1, CYP3A4 (Homo sapiens, UniProt P08684); assay: Direct inhibition test (DI test) in human liver microsomes, CYP3A4; format: in vitro ADME; settings: read-out: inhibitory IC50 on CYP 3A4
T1 construct: human liver microsomes (final concentration was 0.2 mg/mL); from tissue; host or cells: human liver microsomes
T1 sequence (P08684 whole entry): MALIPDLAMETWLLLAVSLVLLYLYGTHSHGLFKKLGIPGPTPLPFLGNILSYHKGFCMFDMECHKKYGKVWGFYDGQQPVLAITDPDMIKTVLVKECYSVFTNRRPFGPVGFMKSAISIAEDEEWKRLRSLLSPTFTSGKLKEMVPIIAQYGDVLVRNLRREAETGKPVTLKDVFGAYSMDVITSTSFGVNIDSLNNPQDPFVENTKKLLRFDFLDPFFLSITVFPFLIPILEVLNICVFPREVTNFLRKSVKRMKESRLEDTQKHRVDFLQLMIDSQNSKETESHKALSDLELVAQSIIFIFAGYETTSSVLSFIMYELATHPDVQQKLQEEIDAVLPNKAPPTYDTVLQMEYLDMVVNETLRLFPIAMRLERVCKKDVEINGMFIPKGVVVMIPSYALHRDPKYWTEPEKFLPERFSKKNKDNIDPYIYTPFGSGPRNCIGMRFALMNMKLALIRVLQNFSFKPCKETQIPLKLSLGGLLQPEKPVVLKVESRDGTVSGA
Description: (§1) (2) Direct inhibition test (DI test): 1004 of human liver microsomes (final concentration was 0.2 mg/mL) system was subjected to inhibition incubation directly, the system contains NADPH (final concentration was 1 mM), 10 μM compound, positive inhibitor cocktail (ketoconazole 10 μM, quinidine 10 μM, sulfapyrazole 100 μM, a-naphthoflavone 10 μM, tranylcypromine […]), negative control (0.1% DMSO BPS) and mixed probe substrate (midazolam 1004, testosterone 10004, dextromethorphan 10 μM, diclofenac 20 μM, phenacetin 100 μM, mephenytoin 100 μM), the reaction was terminated after incubation for 20 min. The relative enzyme activity was calculated by measuring the relative production of metabolites.

H1299 = assay: Proliferation inhibition of H1299 cells; format: cell-based; settings: Homo sapiens, NCI-H1299; H1299 cell line; read-out: proliferation inhibitory activity IC50
Description: (§2) The proliferation inhibitory activity of some of the embodiment compounds against different cell lines such as LNCAP (+R1881), SKM-1, 22RV1, DU145, MOLM13, MDA-PCA-2b, KASUMI 1, THP-1, KG-1, IEC6, H1299, etc., was tested using similar methods in test embodiment 2 and in the literature.

[1] = In vivo pharmacokinetics in mice; settings: male, Balb c, mouse, plasma, po, 5 mg/kg; for AUC / Cmax / half-life: gavage
Description: Six male SPF-grade SD rats or Balb c mice (Shanghai B&K laboratory animals) were divided into two groups and the test compounds were configured into suitable solutions or suspensions; one group was administered intravenously and one group was administered orally. Blood was collected by jugular vein puncture, and each sample was collected about 0.2 mL/time point, heparin sodium was used for anticoagulation, the blood collection time points were as follows: before administration and 5, 15 and 30 minutes, 1, 2, 4, 6, 8 and 24 h after administration, the blood sample was collected and placed on ice, centrifuged to separate the plasma (centrifugation conditions: 8000 rpm, 6 minutes, 2-8° C.), and the collected plasma was stored at −80° C. before analysis. The plasma samples were analyzed by LC-MS/MS.
According to the blood drug concentration data of the drug, the pharmacokinetic calculation software WinNonlin5.2 non-compartmental model was used to calculate the pharmacokinetic parameters AUC0-t, AUC0-∞, MRT0-∞, Cmax, Tmax, T1/2 and Vd and other parameters and their mean and standard deviation. In addition, the bioavailability (F) was calculated by the following formula.
For samples with a concentration lower than the lower limit of quantification, when calculating the pharmacokinetic parameters, the samples sampled before reaching Cmax should be calculated as zero, and samples sampled after reaching Cmax should be calculated as unquantifiable (BLQ).

[2] = In vivo pharmacokinetics in beagle dogs; settings: dog, plasma, po, gavage, 10 mg/kg
[3] = tested on: most AML cell lines and prostate cancer cell lines; assay: Proliferation inhibition of different cell lines: AML and prostate cancer lines; format: cell-based; settings: read-out: proliferation inhibitory activity IC50
Description: as §2

[4] = Metabolic stability in rat liver microsomes; format: in vitro ADME; settings: liver microsomes 0.5 mg/mL, NADPH, 1 μM compound, read-out: Rat microsomal T1/2
Description: (1) Metabolic stability test: 150 μL of liver microsomes (final concentration was 0.5 mg/mL) were subjected to metabolic stability incubation, the system containing NADPH (final concentration was 1 mM), 1 μM of the test compound and the positive control midazolam or the negative control atenolol, the reaction was terminated with acetonitrile containing tinidazole at 0 min, 5 min, 10 min, and 30 min, respectively, then the mixture was vortexed for 10 min, and centrifuged at 15000 rmp for 10 min, 50 μL of the supernatant was injected into 96 well. The metabolic stability of the compound was calculated by measuring the relative reduction of the original drug. (See Table 3 for specific values)

BRD4-BD1 = biological target: T2, BRD4-BD1 (Homo sapiens, UniProt O60885); assay: BRD4 AlphaScreen determination (BD1); format: binding
T2 construct: purchased ReactionBiologyCorp; (RBC)
Description: (1) 1× Assay buffer was prepared according to the kit requirements of ReactionBiologyCorp. (RBC). (2) Compound concentration gradient preparation: the test compounds were tested at final concentrations starting at 10 μM, with 10 concentrations at 3-fold dilution and single well test was set for each concentration. The positive control compound(+)-JQ-1 was tested at final concentrations starting at 1 μM, with 10 concentrations at 3-fold dilution, and duplicated well test was set for each concentration. The solution was gradient diluted to the corresponding 1000-fold final concentration in a 384-well Source plate, and then 20 nL of the solution was transferred to the 384-well reaction plate with Echo550 to be measured. 20 nL of 100% DMSO was transferred to the Max well, and the highest concentration of the positive compounds were transferred to the Min wells. […] (6) 5 μL of 4× peptide solution was added to each well of the reaction plate, centrifuged at 1000 rpm for 1 min. (7) 10 μL of the assay solution was added, centrifuged at 1000 rpm for 60 seconds, the solution was mixed with gentle shaking, and incubated at room temperature for 60 minutes. (8) Reading with EnVision. (9) The IC50 values of the compounds for protein binding inhibition was obtained by fitting the dose-effect curve with the analytical software GraphPad Prism 5. (See Table 1 for specific values)

IEC6 = assay: Proliferation inhibition of IEC6 cells; format: cell-based; settings: Rattus norvegicus, IEC-6; IEC6 cell line; read-out: proliferation inhibitory activity IC50
Description: as §2

CYP2C8 = biological target: T3, CYP2C8 (Homo sapiens, UniProt P10632); assay: Direct inhibition test (DI test) in human liver microsomes, CYP2C8; format: in vitro ADME; settings: read-out: inhibitory IC50 on CYP 2C8
T3 sequence (P10632 1-490): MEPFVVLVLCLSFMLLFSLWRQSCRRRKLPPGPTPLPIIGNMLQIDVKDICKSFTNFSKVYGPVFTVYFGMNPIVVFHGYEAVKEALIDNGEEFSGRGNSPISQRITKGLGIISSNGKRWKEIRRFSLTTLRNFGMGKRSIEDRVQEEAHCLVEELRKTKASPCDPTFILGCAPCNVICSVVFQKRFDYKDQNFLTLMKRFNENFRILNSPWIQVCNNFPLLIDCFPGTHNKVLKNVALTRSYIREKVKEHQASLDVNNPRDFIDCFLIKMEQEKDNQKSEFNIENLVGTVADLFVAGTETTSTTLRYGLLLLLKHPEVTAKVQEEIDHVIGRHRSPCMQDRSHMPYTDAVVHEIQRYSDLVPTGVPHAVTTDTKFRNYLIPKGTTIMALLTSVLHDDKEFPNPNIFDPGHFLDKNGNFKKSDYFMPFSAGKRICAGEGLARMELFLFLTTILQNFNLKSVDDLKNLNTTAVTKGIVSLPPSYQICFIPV
Description: as §1

| SMILES | pIC50 (CYP3A4) | pIC50 (H1299) | bioavailability [1] [%] | AUC [1] [µM·h] | Cmax [1] [nM] | half-life [1] [h] | AUC [2] [µM·h] | Cmax [2] [nM] | half-life [2] [h] | pIC50 [3] | half-life at 1 μM [4] [h] | pIC50 (BRD4-BD1; AlphaScreen, protein binding inhibition, read-out: BRD4-BD1 IC50) | pIC50 (IEC6) | IC50 at 20 min (CYP2C8) [nM] | pIC50 (BRD4-BD1) |
| --- | --- | --- | --- | --- | --- | --- | --- | --- | --- | --- | --- | --- | --- | --- | --- |
| Cc1cc(F)cc(C)c1Oc1ccc(C(C)(C)O)cc1-c1cn(C)c(=O)c2cc(C(=O)NC3CC(F)(F)C3)[nH]c12 [Embodiment 18, N-(3,3-difluorocyclobutyl)-7-(2-(4-fluoro-2,6-dimethylphenoxy)-5-(2-hydroxyprop-2-yl)phenyl)-5-methyl-4-oxo-4,5-dihydro-1H-pyrrolo[3,2-c] pyridine-2-amide] | < 4.82 | < 6.00 | > 40 | > 5 | > 1500 | > 3 | > 15 | 2000 | > 2 | > 6.00 | 1.38 | 6.93 | < 6.00 | > 15000 | – |
| CCNC(=O)c1cc2c(=O)n(C)cc(-c3cc(C(C)(C)O)ccc3Oc3c(C)cc(F)cc3C)c2[nH]1 [compound 1, reference compound] | < 4.82 | < 6.00 | > 40 | > 5 | > 1500 | > 3 | > 15 | 2000 | > 2 | > 6.00 | – | – | < 6.00 | > 15000 | 7.40 |
